Reference: US8207329B2, “Synthesis of chlorins and phorbines with enhanced red spectral features” (North Carolina State University, priority 2005, dated 2012)
Where two headings read alike, the source gives them in different places.

Tests used:
[1] = Absorption spectra obtained in toluene at room temperature; type: physicochemical; details: for redshift of the Qy band: Example 1, versus benchmark chlorin lacking the 13-substituent (Zn-11 or 11), toluene; for Qy band: figure legends (FIG. 1, 2, 4, 5), toluene at room temperature, normalized at the B bands
Description: (§1) Absorption Spectra. The spectral properties of interest in the chlorins include the position of the long-wavelength Qy transition, the intensity of the Qy transition, and the fluorescence quantum yield of the chlorin. The intensity of the Qy transition can be assessed by the measured molar absorption coefficient; however, comparisons of such values are somewhat unreliable given the experimental variability encountered upon handling small quantities of materials. A better comparison is achieved by examination of the ratio of the intensities of the B and Qy bands for a given compound (B/Qy ratio), which is determined simply by absorption spectroscopy without requiring determination of the molar absorption coefficient. For a wide variety of applications, bathochromic and hyperchromic shifts of the Qy band are desired (i.e., shifted to longer wavelength and intensified), thereby affording strong absorption in the deep-red region.
General. ^1H NMR (400 MHz) and ^13C NMR (75 MHz) spectra were collected at room temperature in CDCl3. Absorption spectra were obtained in toluene at room temperature. Chlorins were analyzed by laser desorption mass spectrometry (LD-MS) in the absence of a matrix. Fast atom bombardment mass spectrometry (FAB-MS) data are reported for the molecule ion or protonated molecule ion. Melting points are uncorrected. All commercially available materials were used as received. All palladium-coupling reactions were carried out using standard Schlenk-line techniques.
as §1, with “B. Absorption” for “Absorption”, “Spectroscopy.” for “Spectra.”, “increased” for “intensified), thereby affording strong absorption”, “intensity).” for “the deep-red region.”
General. ^1H NMR (400 MHz) and ^13C NMR (75 MHz) spectra were collected at room temperature in CDCl3 unless noted otherwise. Absorption spectra were obtained in toluene at room temperature. Chlorins were analyzed by laser desorption mass spectrometry (LD-MS) in the absence of a matrix. Metalation of free base chlorins was monitored by fluorescence spectroscopy. Melting points are uncorrected. All commercially available materials were used as received.

[2] = Fluorescence spectra and fluorescence quantum yields in toluene at room temperature; type: physicochemical
Method: Fluorescence Spectroscopy. The fluorescence spectra and fluorescence quantum yields reported herein were collected in toluene at room temperature. Measurements of fluorescence quantum yield (Φf) were carried out using chlorin Zn-11 (Φf=0.065) as a standard (Strachan, J.-P. et al., J. Org. Chem. 2000, 65, 3160-3172).

[3] = comparison values, Strachan et al.; cited from earlier work
[4] = Table 1, in toluene at room temperature

CC(=O)c1cc2[n]3c1=CC1=NC(=Cc4ccc([n]4[Zn]3)C(c3ccc(C)cc3)=C3C=CC(=N3)C=2c2c(C)cc(C)cc2C)C(C)(C)C1 [Zn-8, Zn(II)-13-Acetyl-17,18-dihydro-10-mesityl-18,18-dimethyl-5-p-tolylporphyrin]
redshift of the Qy band [1]: 27 nm
B/Qy intensity ratio [1, 4]: 2.9
Log ε (M^−1cm^−1) (Qy band) [1, 4]: 4.75 M^−1cm^−1
λmax (nm), B [1, 4]: 424 nm
λmax (nm), Qy [1, 4]: 635 nm
Qy band [1]: 632 nm
strong / dominant Qy(0,0) fluorescence band [2]: around 641 nm
weak emission feature / broad weak band [2]: 670-720 nm
fluorescence quantum yield (Φf) ([2]; standard Zn-11 (Φf=0.065)): 0.24

Cc1ccc(-c2c3nc(c(-c4c(C)cc(C)cc4C)c4cc5c([nH]4)c(c4nc(cc6ccc2[nH]6)C(C)(C)C4)CC5=O)C=C3)cc1 [compound 10, 18,18-Dimethyl-10-mesityl-13^1-oxo-5-p-tolylphorbine]
redshift of the Qy band [1]: 19 nm
B/Qy intensity ratio [1, 4]: 2.5
λmax (nm), B [1, 4]: 417 nm
λmax (nm), Qy [1, 4]: 660 nm
Qy band [1]: 660 nm
fluorescence quantum yield (Φf) [3]: 0.29
